Patent publication US20130310379A1, “MODULATORS OF METHYL MODIFYING ENZYMES, COMPOSITIONS AND USES THEREOF” (CONSTELLATION PHARMACEUTICALS, priority 2010, published 2013)

Biological target: EZH2 (Homo sapiens, UniProt Q15910)
Test: EZH2 assay: rPRC2 with biotinylated oligonucleosome substrates and 3H SAM, FlashPlate scintillation counting, IC50
Format: biochemical
Conditions: rPRC2, biotinylated oligonucleosome substrates, 3H SAM; read-out: EZH2 IC50
In short: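 IC50 from 4-parameter fit, baselines fixed at 0 and 100%. Compounds (top 80 uM, 2-fold series to 0.16 uM) pre-incubated 20 min with 2 nM EZH2-PRC2; 60-min methylation in pH 8.5 Tris with 0.2 uM 3H SAM, 0.2 uM oligonucleosomes, 3.6 uM H3K27me3 peptide.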

EZH2, sequence (Q15910 whole entry): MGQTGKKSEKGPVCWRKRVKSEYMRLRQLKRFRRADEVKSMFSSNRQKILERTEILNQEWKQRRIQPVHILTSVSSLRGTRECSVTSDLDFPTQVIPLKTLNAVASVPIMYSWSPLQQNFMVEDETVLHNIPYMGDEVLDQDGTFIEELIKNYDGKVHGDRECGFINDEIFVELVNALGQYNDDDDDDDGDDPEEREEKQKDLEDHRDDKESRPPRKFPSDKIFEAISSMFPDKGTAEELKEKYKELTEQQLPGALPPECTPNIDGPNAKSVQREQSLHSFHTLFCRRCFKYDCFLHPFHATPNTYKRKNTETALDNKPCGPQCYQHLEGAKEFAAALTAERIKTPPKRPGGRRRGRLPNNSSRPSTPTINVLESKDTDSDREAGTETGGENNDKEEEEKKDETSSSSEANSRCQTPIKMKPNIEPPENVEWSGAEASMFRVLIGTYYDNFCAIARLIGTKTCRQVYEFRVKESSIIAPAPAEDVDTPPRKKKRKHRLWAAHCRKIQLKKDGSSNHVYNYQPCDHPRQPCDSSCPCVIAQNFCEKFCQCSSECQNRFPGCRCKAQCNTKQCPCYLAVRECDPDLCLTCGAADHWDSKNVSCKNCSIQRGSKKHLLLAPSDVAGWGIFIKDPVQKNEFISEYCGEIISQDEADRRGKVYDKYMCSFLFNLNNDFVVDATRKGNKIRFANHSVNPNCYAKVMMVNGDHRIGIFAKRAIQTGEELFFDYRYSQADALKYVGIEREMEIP
EZH2, sequence (O75530 whole entry partner): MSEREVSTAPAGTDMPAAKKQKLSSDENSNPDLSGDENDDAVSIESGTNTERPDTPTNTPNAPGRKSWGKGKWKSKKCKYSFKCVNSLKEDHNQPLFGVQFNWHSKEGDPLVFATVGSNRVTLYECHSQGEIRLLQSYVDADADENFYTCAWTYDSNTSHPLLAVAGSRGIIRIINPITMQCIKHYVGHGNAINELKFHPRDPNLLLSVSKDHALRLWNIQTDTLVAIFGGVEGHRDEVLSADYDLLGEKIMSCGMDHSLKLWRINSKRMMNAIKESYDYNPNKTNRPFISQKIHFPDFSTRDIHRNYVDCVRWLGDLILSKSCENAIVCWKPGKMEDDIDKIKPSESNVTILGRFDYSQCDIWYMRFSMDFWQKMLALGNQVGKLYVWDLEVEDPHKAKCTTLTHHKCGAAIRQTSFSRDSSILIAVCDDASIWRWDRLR
EZH2, sequence (Q15022 whole entry partner): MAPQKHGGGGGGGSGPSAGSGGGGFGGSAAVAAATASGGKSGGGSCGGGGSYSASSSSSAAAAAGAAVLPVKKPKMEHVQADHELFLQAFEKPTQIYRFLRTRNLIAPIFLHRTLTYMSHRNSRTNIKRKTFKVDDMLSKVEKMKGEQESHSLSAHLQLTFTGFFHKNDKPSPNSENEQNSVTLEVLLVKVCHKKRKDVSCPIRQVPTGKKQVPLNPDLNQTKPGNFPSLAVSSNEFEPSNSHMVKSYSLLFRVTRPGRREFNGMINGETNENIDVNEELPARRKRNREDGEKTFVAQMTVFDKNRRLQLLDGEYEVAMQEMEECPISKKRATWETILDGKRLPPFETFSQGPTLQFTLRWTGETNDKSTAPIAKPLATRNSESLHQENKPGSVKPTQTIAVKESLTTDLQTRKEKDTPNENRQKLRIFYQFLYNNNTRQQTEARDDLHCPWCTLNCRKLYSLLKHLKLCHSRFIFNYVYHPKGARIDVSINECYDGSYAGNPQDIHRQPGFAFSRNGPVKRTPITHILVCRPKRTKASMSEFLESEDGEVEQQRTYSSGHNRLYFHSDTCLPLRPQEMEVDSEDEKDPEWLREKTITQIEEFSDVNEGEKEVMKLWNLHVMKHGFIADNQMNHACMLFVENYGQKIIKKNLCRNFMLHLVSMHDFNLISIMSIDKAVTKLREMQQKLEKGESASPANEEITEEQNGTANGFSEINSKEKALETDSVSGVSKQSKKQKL

IC50 [µM]	SMILES
20 to 80	CC1(C)CC(NC(=O)c2ccc(Oc3ccc(F)cc3C#N)cc2)CC(C)(C)N1 [Compound I-157]
> 80	Cc1cc(C)cc(OCc2cccc(C(=O)NC3CC(C)(C)NC(C)(C)C3)c2)c1 [Compound I-115]
> 80	CN1CCC(NC(=O)c2ccc(Oc3ccccc3C#N)c(Cl)c2)CC1 [Compound I-193]
< 5	CC1(C)CC(NC(=O)c2ccc(Oc3cccc4cnc(Cl)cc34)cc2)CC(C)(C)N1 [Compound I-315]
5 to 20	CC1(C)CC(NC(=O)c2ccc(Oc3cccc(CN4CCCCC4)c3C#N)cc2)CC(C)(C)N1 [Compound I-283]
> 80	CC(c1ccccc1C#N)N1CCN(C(=O)NC2CC(C)(C)NC(C)(C)C2)CC1=O (stereo not shown) [Compound I-484]
20 to 80	COc1cncc(-c2cccc(OCc3ccc(C(=O)NC4CC(C)(C)NC(C)(C)C4)cc3)c2)c1 [Compound I-37]
> 80	COC(=O)C1CC(NC(=O)c2ccc(Oc3ccccc3C#N)c(Cl)c2)CCN1 (stereo not shown) [Compound I-389]
> 80	CC1(C)CC(NC(=O)c2ccc(C3(c4ccccc4)CC3)cc2)CC(C)(C)N1 [Compound I-437]
< 5	Cc1noc(C)c1-c1cccc(Oc2ccc(C(=O)NC3CC(C)(C)NC(C)(C)C3)cc2Cl)c1C#N [Compound I-463]
20 to 80	CC1(C)CC(NC(=O)c2ccc(COc3ccccc3)c(Br)c2)CC(C)(C)N1 [Compound I-215]
20 to 80	CC1(C)CC(NC(=O)c2ccc(COc3cccc4cccnc34)cc2)CC(C)(C)N1 [Compound I-189]
> 80	CC1(C)CC(NC(=O)N2CCN(Cc3ccccc3C#N)CC2)CC(C)(C)N1 [Compound I-438]
< 5	CC1(C)CC(NC(=O)c2ccc(Oc3cccc(-c4ccc(N5CCNCC5)nc4)c3C#N)c(Cl)c2)CC(C)(C)N1 [Compound I-549]
> 80	CC1(C)CC(NC(=O)c2ccc(Nc3ccccc3)cc2)CC(C)(C)N1 [Compound I-107]
< 5	CNc1cccc(Oc2ccc(C(=O)NC3CC(C)(C)NC(C)(C)C3)cc2Cl)c1C#N [Compound I-348]

IC50 [µM]	SMILES
20 to 80	N#CCCN1CCC(NC(=O)c2ccc(Oc3cccc(-c4ccnnc4)c3C#N)c(Cl)c2)CC1 [Compound I-485]
20 to 80	CC1(C)CC(NC(=O)c2ccc(COc3cccc(-c4ccc(NC(=O)C5CC5)nc4)c3)cc2)CC(C)(C)N1 [Compound I-153]
< 5	CN(C)C(=O)CCc1cccc(Oc2ccc(C(=O)NC3CC(C)(C)NC(C)(C)C3)cc2Cl)c1C#N [Compound I-552]
5 to 20	CC1(C)CC(NC(=O)c2ccc(Oc3cccc(CN4CCCC4)c3)cc2)CC(C)(C)N1 [Compound I-235]
> 80	O=C(NCc1ccccc1)c1ccc(Oc2ccccc2)cc1 [Compound I-141]
> 80	CC1(C)CC(NC(=O)c2ccc(OCc3ccccc3)cc2)CC(C)(C)N1 [Compound I-75]
20 to 80	CC1(C)CC(NC(=O)c2ccc(Oc3ccccc3)c(O)c2)CC(C)(C)N1 [Compound I-268]
< 5	CN1CCN(c2ccc(-c3cccc(Oc4ccc(C(=O)NC5CC(C)(C)NC(C)(C)C5)cc4Cl)c3C#N)cn2)CC1 [Compound I-550]
5 to 20	CCN1C(C)(C)CC(NC(=O)c2ccc(Oc3ccccc3C#N)c(Cl)c2)CC1(C)C [Compound I-276]
> 80	CC1(C)CC(NC(=O)c2ccc(COc3ccccn3)cc2)CC(C)(C)N1 [Compound I-80]
< 5	CC1(C)CC(NC(=O)c2ccc(Oc3ncccc3C#N)c(Br)c2)CC(C)(C)N1 [Compound I-220]
> 80	CC1(C)CC(NC(=O)N2CCC(c3ccccc3)C2)CC(C)(C)N1 (stereo not shown) [Compound I-470]
5 to 20	CC1(C)CC(C(=O)Nc2ccc(Oc3cccc(-c4cn[nH]c4)c3C#N)c(Cl)c2)CC(C)(C)N1 [Compound I-449]
> 80	CC1(C)CC(NC(=O)c2ccc(Oc3cccc4c(=O)[nH]ccc34)cc2)CC(C)(C)N1 [Compound I-317]
> 80	CC1(C)CC(NC(=O)c2ccc(Oc3ccccc3C#N)c(Cl)c2)CC(=O)N1 (stereo not shown) [Compound I-491]
